Key:
WRN helicase = WRN helicase (Homo sapiens, UniProt Q14191); assay: WRN helicase hydrolysis/unwinding of double-stranded DNA (fluorescence); type: biochemical
Description: The activity of the molecules of the present disclosure on the hydrolysis of double-stranded PP-6TR DNA by WRN helicase was tested.
The working solution and buffer were prepared, and the test compound was dissolved in DMSO followed by a4-fold dilution (with a final concentration of 10 μM as the starting concentration). Then, 0.2 μL of the test compound solution was added to a384-well plate, followed by 10 μL of (2×) WRN enzyme solution. The mixture was incubated in the dark for 30 minutes, after which 10 μL of substrate detection solution containing double-stranded DNA was added to initiate the reaction (DNA length: 19 bp, labeled with TAMRA at the 3′ end and BHQ2 at the 5′ end). The mixture was incubated at room temperature for 60 minutes. The inhibitory activity (IC50) against the WRN enzyme was calculated based on the fluorescence change (Ex530/Em590) between the blank group (DMSO) and the compound group.

[1] = system: MSI-H colorectal cancer SW48 cell line; assay: 2D anti-proliferative activity, MSI-H SW48 cells (CTG, 5 days); type: cell-based
Procedure, shortened: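 SW48 cells in RPMI 1640/10% FBS were exposed to serially varied compound concentrations for 5 days at 37 °C, 5% CO2. Viability was read as ATP-dependent CellTiter-Glo luminescence after 30 min.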

[2] = system: MSS colorectal cancer HT-29 cell line; assay: 2D anti-proliferative activity, MSS HT-29 cells (CTG, 5 days); type: cell-based
Description: The molecules of the present disclosure were tested for their anti-proliferative activity against MSS tumor cells.
The MSS HT-29 colorectal cancer cells were cultured in McCoy's 5A medium containing 10% FBS and 1% penicillin-streptomycin in a 37° C., 5% CO2 constant temperature incubator. A 40 μL cell suspension was added to each well of a 384-well microplate. Using Echo, 40 nL of compounds at different concentrations was dispensed into each well, followed by incubation in a 37° C., 5% CO2 constant temperature incubator for 5 days. Then, 40 μL of CTG solution (Promega, Cat No. G7573) was added to each well, and the plate was incubated in the dark in a 37° C., 5% CO2 constant temperature incubator for 30 minutes. Luminescence was measured using an Envision multi-function microplate reader (Perkin Elmer, Model: Envision 2104). The luminescent signal was proportional to the amount of ATP in the system, and the amount of ATP directly represented the number of living cells in the system.

[3] = Liver microsome stability test; type: in vitro ADME; details: human liver microsomes 0.5 mg/mL, compound 1 μM, NADPH 1 mM, 60 minutes
Description: The liver microsome stability test of the compounds is as follows:
The compounds of the present disclosure were subjected to a liver microsome stability test. The compounds to be tested were co-incubated with liver microsomes of different species with or without the addition of NADPH. The final concentration of the compounds to be tested in the test system was 1 μM, the final concentration of NADPH was 1 mM, and the final concentration of liver microsomes was 0.5 mg/mL.

[4] = Pharmacokinetic evaluation in mice; type: in vivo, CD1 female mice
Description: CD1 female mice were used as test animals and the drug was administered orally/intravenously (oral dosage: 10 mg/kg, intravenous dosage: 2 mg/kg).
Assay protocol: The oral group consisted of 3 mice per group (vehicle: 10% Hβ-CD-pH7.4), and the intravenous group consisted of 3 mice per group. […] The blood concentrations in plasma after oral and intravenous administration of mice were determined by LC/MS/MS, respectively.

[5] = system: SW 48 (MSI-H) colorectal cancer cells; assay: In vivo pharmacodynamic assay, SW48 xenograft in nude mice; design: species or system BALB/c nude mice; details: 120 mg/kg, QD, oral
Description: In vivo pharmacodynamic assay in BALB/c nude mice. Details are as follows:
SW 48 (MSI-H) colorectal cancer cells were cultured (L15 medium with 10% fetal bovine serum), and then inoculated into 6-8-week old female BALB/c nude mice (weighing about 20 g), wherein all mice were inoculated subcutaneously. The mice were cultured in an SPF-grade experimental environment, and all mice had free access to commercially certified standard diets. When the average tumor volume of the mice grew to about 150 mm^3, the test compound was orally administered daily. The dosage was as follows: blank group vehicle (10% HP-β-CD aqueous solution, pH-7). The dosage of the administration group was 120 mg/kg, 50 mg/kg, or 20 mg/kg, once a day. The tumor volume was measured with a two-dimensional caliper three times a week, and the animals were weighed every day. […] The tumor volume was calculated using the formula: V=½a*b^2, where a represents the long diameter of the tumor, and b represents the short diameter of the tumor.

WRN helicase, sequence (Q14191 whole entry): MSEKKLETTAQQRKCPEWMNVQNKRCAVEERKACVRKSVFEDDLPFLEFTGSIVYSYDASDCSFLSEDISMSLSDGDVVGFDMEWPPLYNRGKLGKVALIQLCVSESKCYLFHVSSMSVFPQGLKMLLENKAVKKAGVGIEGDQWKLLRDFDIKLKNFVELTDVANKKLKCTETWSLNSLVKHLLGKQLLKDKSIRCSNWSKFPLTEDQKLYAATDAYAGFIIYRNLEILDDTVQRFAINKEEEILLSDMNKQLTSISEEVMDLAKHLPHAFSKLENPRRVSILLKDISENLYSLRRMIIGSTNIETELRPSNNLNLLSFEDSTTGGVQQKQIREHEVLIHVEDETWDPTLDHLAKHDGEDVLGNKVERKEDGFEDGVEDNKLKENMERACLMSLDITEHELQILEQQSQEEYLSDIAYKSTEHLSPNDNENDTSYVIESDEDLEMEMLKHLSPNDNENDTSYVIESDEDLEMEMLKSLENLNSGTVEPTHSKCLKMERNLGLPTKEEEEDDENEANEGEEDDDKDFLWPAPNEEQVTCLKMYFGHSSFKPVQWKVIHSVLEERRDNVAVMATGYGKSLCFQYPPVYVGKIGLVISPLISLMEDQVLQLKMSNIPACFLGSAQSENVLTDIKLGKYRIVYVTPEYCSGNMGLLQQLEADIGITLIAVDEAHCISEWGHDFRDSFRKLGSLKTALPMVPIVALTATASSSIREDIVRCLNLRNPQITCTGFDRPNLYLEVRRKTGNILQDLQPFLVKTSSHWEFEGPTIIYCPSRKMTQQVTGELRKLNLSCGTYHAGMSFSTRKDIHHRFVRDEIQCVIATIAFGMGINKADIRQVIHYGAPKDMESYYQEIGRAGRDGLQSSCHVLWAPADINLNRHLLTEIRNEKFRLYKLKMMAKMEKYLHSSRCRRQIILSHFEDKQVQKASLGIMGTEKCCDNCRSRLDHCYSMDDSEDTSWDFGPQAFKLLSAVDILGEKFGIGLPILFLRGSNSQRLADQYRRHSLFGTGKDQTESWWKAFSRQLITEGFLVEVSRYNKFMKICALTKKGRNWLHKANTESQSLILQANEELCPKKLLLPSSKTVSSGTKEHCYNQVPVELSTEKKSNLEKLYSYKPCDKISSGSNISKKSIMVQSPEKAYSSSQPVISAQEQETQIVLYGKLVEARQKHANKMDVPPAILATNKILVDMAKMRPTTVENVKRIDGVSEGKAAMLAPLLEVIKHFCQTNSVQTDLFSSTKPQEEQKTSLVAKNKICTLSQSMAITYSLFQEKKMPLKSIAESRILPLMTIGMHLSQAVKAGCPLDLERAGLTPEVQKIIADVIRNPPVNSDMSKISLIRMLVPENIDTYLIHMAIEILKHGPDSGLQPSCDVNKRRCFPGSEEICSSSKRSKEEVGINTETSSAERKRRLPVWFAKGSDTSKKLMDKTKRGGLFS

## CCc1c(N2CCN(C(=O)c3ncnc(C)c3O)CC2)c(=O)n2nc(C3=CCOCC3)nc2n1CC(=O)Nc1ccc(C(F)(F)F)c2ccsc12 [Compound H1]
WRN helicase
  IC50: 1.5 nM
[1]; 0.038146973 nM
  Average value/ Inhibition rate: −7.8792
  Test 1/ Inhibition rate: −7.3699
  Test 2/ Inhibition rate: −8.3885
[1]; 0.152587891 nM
  Average value/ Inhibition rate: −7.2326
  Test 1/ Inhibition rate: −8.9847
  Test 2/ Inhibition rate: −5.4804
[1]; 0.610351563 nM
  Average value/ Inhibition rate: −7.2423
  Test 1/ Inhibition rate: −8.9821
  Test 2/ Inhibition rate: −5.5025
[1]; 2.44140625 nM
  Average value/ Inhibition rate: −1.2893
  Test 1/ Inhibition rate: −5.0894
  Test 2/ Inhibition rate: 2.5108
[1]; 9.765625 nM
  Average value/ Inhibition rate: −9.8115
  Test 1/ Inhibition rate: −9.6799
  Test 2/ Inhibition rate: −9.9432
[1]; 39 nM
  inhibitory activity on SW48 cells: high inhibitory activity
[1]; 39.0625 nM
  Average value/ Inhibition rate: 12.6131
  Test 1/ Inhibition rate: 9.3323
  Test 2/ Inhibition rate: 15.8938
[1]; 156.25 nM
  Average value/ Inhibition rate: 98.3044
  Test 1/ Inhibition rate: 98.4846
  Test 2/ Inhibition rate: 98.1243
[1]; 625 nM
  Average value/ Inhibition rate: 98.5020
  Test 1/ Inhibition rate: 98.3268
  Test 2/ Inhibition rate: 98.6771
[1]; 2500 nM
  Average value/ Inhibition rate: 99.9213
  Test 1/ Inhibition rate: 99.6262
  Test 2/ Inhibition rate: 100.2164
[1]; 10000 nM
  Average value/ Inhibition rate: 100.6963
  Test 1/ Inhibition rate: 100.7430
  Test 2/ Inhibition rate: 100.6495
[1]; 5 days
  IC50: 55 nM
[2]
  IC50: > 10000 nM
[3]
  Human Clint μL/min/mg Protein: 14.8 μL/min/mg Protein
  Human Clint/(mL/min/kg): 18.5 mL/min/kg
[4]
  in vivo exposure compared with reference molecule A1: higher in vivo exposure
[4]; IV 2 mg/kg
  AUC0-24: 1421 ng·h/mL
  C0: 3299 ng/mL
  Cl: 23.4 mL/min/kg
  T1/2: 1.6 h
[4]; PO 10 mg/kg
  AUC0-24: 5599 ng·h/mL
  Cmax: 4645 ng/mL
  T1/2: 1.2 h
  Tmax: 0.5 h
[4]; PO 10 mg/kg vs IV 2 mg/kg
  F: 79%
[5]
  TGI: 105%
[5]; day 1
  Tumor volume (mm^3)-D 1: 171 mm^3
[5]; day 21
  Tumor volume (mm^3)-D 21: 28 mm^3

From US20260216197A1, “WRN HELICASE INHIBITOR” (SUZHOU PUHE BIOPHARMA CO., LTD., priority 2022, published 2026)
